{
  "source": "patent US4221907A",
  "about": "“Substituted O-α-D and O-β-D-multi-galactopyranosyl and glucopyranosyl 1→4 and 1→6 galactopyranosyl 1→6 α-D-glucopyranoses” (American Cyanamid Company, priority 1979, dated 1980)",
  "key": {"[1]": {"target": "human C1 (Homo sapiens, UniProt P09871)", "sequence (P09871 16-688)": "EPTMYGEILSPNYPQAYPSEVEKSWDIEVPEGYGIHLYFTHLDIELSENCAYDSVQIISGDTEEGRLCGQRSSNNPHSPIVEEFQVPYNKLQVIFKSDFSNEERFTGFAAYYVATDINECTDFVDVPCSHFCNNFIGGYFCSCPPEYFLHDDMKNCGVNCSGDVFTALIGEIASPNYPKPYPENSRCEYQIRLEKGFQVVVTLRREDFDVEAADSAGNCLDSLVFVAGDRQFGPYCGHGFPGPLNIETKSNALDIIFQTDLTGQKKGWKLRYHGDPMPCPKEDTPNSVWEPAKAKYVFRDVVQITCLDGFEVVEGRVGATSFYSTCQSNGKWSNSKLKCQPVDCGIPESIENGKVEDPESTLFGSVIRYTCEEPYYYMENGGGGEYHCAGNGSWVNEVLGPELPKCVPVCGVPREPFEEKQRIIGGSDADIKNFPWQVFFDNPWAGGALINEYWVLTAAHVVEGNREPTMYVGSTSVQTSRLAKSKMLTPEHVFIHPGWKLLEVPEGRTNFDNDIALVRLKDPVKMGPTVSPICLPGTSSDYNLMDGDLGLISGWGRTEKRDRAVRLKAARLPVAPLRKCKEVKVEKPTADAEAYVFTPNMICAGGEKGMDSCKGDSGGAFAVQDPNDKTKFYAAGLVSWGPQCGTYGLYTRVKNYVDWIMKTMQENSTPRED", "sequence (P00736 18-705 partner)": "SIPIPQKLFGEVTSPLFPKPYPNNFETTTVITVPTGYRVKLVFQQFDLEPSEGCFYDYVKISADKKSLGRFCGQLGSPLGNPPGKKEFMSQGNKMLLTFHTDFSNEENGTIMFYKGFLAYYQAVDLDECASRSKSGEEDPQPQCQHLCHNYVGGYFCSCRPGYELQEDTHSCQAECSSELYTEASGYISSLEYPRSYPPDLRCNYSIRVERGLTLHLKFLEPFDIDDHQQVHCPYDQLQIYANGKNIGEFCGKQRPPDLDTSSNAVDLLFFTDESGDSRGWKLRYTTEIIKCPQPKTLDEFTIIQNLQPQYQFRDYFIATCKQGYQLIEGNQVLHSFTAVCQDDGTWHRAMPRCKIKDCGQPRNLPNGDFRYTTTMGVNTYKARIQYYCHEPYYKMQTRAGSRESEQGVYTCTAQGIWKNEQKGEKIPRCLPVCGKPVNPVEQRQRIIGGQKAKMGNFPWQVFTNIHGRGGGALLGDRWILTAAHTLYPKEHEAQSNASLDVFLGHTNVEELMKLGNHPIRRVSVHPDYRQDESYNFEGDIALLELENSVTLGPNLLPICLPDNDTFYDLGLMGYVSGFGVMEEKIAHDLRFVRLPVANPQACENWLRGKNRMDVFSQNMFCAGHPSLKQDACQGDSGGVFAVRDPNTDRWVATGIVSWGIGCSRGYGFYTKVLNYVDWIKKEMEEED", "sequence (P02745 23-245 partner)": "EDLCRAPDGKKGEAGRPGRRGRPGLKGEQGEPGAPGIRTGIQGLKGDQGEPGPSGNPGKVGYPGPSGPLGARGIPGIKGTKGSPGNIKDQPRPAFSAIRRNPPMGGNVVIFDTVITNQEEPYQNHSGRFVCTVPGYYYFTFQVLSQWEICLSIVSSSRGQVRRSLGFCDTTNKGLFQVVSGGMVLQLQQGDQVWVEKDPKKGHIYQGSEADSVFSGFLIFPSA", "sequence (P02746 28-253 partner)": "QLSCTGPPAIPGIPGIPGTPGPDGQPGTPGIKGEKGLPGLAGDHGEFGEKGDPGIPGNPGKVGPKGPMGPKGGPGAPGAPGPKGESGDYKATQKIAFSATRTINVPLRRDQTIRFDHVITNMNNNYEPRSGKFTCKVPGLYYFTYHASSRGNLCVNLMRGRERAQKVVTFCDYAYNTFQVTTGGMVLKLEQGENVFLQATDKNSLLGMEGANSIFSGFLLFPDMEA", "sequence (P02747 29-245 partner)": "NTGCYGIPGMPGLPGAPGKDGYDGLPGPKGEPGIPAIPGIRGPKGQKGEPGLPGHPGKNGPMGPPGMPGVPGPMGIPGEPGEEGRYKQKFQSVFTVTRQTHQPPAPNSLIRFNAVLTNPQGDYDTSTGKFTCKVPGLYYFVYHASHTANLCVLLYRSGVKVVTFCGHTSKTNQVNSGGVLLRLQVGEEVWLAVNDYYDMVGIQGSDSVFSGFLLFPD", "assay": "Test Code 026 (C1 inhibitor): activated human C1 destroys fluid phase human C2 in presence of C4", "assay_type": "biochemical", "conditions": "activity in wells, twofold serial dilution; higher well number indicates higher activity", "source_text": "(§1) An active inhibitor protects C2 from C1 and C4; (ii) Test Code 035 (C3-C9 inhibitor)--This test determines the ability of the late components of human complement (C3-C9) to lyse EAC 142 in the presence of appropriate dilutions of the test compound. An active inhibitor protects EAC 142 from lysis by human C3-C9; (iii) Test Code 036 (C-Shunt inhibitor)--In this test human erythrocytes rendered fragile are lysed in autologous serum via the shunt pathway activated by cobra venom factor in the presence of appropriate dilutions of the test compound. Inhibition of the shunt pathway results in failure of lysis; (iv) Forssman Vasculitis Test--Here, the well known complement dependent lesion, Forssman vasculitis, is produced in guinea pigs by intradermal injection of rabbit anti-Forssman antiserum. The lesion is measured in terms of diameter, edema and hemorrhage and the extent to which a combined index of these is inhibited by prior intraperitoneal injection of the test compound at 200 mg/kg is then reported, unless otherwise stated; (v) Forssman Shock Test--Lethal shock is produced in guinea pigs by an i.v. injection of anti-Forssman antiserum and the harmonic mean death time of treated guinea pigs is compared with that of the simultaneous controls; (vi) Complement Level Reduction Test--In this test, the above dosed guinea pigs, or others are bled for serum and the complmenet level is determined in undiluted serum by the capillary tube method of U.S. Pat. No. 3,876,376 and compared to undosed control guinea pigs; (vii) Cap 50 Test--Here, appropriate amounts of the test compound are added to a pool of guinea pig serum in vitro, after which the undiluted serum capillary tube assay referred to above is run. The concentration of compound inhibiting 50% is reported.\n(§2) **Activity in wells, a serial dilution assay; higher well number indicate\n(§3) higher activity. The serial dilutions are twofold-"}, "[2]": {"system": "human complement (C3-C9)", "assay": "Test Code 035 (C3-C9 inhibitor): lysis of EAC 142 by late components of human complement", "assay_type": "biochemical", "conditions": "activity in wells, twofold serial dilution; higher well number indicates higher activity", "source_text": "as §1, §2, §3"}, "[3]": {"system": "shunt pathway", "assay": "Test Code 036 (C-Shunt inhibitor): lysis of human erythrocytes in autologous serum via shunt pathway activated by cobra venom factor", "assay_type": "biochemical", "conditions": "activity in wells, twofold serial dilution; higher well number indicates higher activity", "source_text": "as §1, §2, §3"}, "[4]": {"system": "whole complement", "assay": "In vivo activity (Guinea Pig): serum whole complement by capillary tube assay after dosing", "conditions": "Intraperitoneal, 200 mg/kg"}, "[5]": {"system": "total hemolytic complement activity", "conditions": "in vitro and in vivo, as judged by reduction in total hemolytic complement activity; cited from earlier work"}, "[6]": {"system": "hereditary angio-neurotic edema", "conditions": "reported in the literature; cited from earlier work"}, "[7]": {"system": "complement system", "conditions": "reported, British Journal of Experimental Pathology, 33, 327-339 (1952); cited from earlier work"}},
  "note": "Where a name gives a salt, the structure may show the parent alone.",
  "data": [
    {"compound": "O=S(=O)(O)OC[C@H]1O[C@@H](OC[C@H]2O[C@H](OC[C@H]3OC(OS(=O)(=O)O)[C@H](OS(=O)(=O)O)[C@@H](OS(=O)(=O)O)[C@@H]3OS(=O)(=O)O)[C@H](OS(=O)(=O)O)[C@@H](OS(=O)(=O)O)[C@H]2OS(=O)(=O)O)[C@H](OS(=O)(=O)O)[C@@H](OS(=O)(=O)O)[C@@H]1O[C@H]1O[C@H](COS(=O)(=O)O)[C@@H](OS(=O)(=O)O)[C@H](OS(=O)(=O)O)[C@H]1OS(=O)(=O)O", "note": "(stereo partly drawn) [drawing 11, O-α-D-glucopyranosyl(1→4)-O-β-D-glucopyranosyl(1→6)-O-α-D-galactopyranosyl(1→6)-D-glucopyranose [glc 1α,4 glc 1β,6 gal 1α,6 glc] tetradecakis (H-sulfate), tetradecasodium salt]", "values": [
      {"measurement": "C1 026 Wells", "setting": "[1]", "result": "+10 Wells"},
      {"measurement": "C-Late 035 Wells", "setting": "[2]", "result": "+1 Wells"},
      {"measurement": "Shunt Inhibition 036 Wells", "setting": "[3]", "result": "+6 Wells"},
      {"measurement": "In vivo Activity (Guinea Pig) % Inhibition", "setting": "[4]; 30 min", "result": -54, "unit": "%"},
      {"measurement": "In vivo Activity (Guinea Pig) % Inhibition", "setting": "[4]; 60 min", "result": -45, "unit": "%"},
      {"measurement": "In vivo Activity (Guinea Pig) % Inhibition", "setting": "[4]; 120 min", "result": -39, "unit": "%"}
    ]},
    {"compound": "pentosan-polysulfoester", "values": [
      {"measurement": "anticomplementary activity on human serum", "setting": "[5]", "result": "anticomplementary activity on human serum, both in vitro and in vivo"}
    ]},
    {"compound": "NCCCCCC(=O)O", "note": "[epsilon-aminocaproic acid]", "values": [
      {"measurement": "treatment of hereditary angio-neurotic edema", "setting": "[6]", "result": "used with success"}
    ]},
    {"compound": "heparin", "values": [
      {"measurement": "anticomplementary effect", "setting": "[7]", "result": "anticomplementary effect"}
    ]},
    {"compound": "O=S(=O)(O)OC[C@H]1O[C@H](OC[C@H]2O[C@@H](OC[C@H]3O[C@H](OC[C@H]4O[C@H](OS(=O)(=O)O)[C@H](OS(=O)(=O)O)[C@@H](OS(=O)(=O)O)[C@@H]4OS(=O)(=O)O)[C@H](OS(=O)(=O)O)[C@@H](OS(=O)(=O)O)[C@H]3OS(=O)(=O)O)[C@H](OS(=O)(=O)O)[C@@H](OS(=O)(=O)O)[C@@H]2OS(=O)(=O)O)[C@H](OS(=O)(=O)O)[C@@H](OS(=O)(=O)O)[C@H]1OS(=O)(=O)O", "note": "[drawing 9, O-α-D-galactopyranosyl(1→6)-O-β-D-glucopyranosyl(1→6)-O-α-D-galactopyranosyl(1→6)-α-D-glucopyranose [gal 1α,6 glc 1β,6 gal 1α,6 glc] tetradecakis (H-sulfate), tetradecasodium salt]", "values": [
      {"measurement": "C1 026 Wells", "setting": "[1]", "result": "+9 Wells"},
      {"measurement": "C-Late 035 Wells", "setting": "[2]", "result": "+1 Wells"},
      {"measurement": "Shunt Inhibition 036 Wells", "setting": "[3]", "result": "+6 Wells"},
      {"measurement": "In vivo Activity (Guinea Pig) % Inhibition", "setting": "[4]; 30 min", "result": -44, "unit": "%"},
      {"measurement": "In vivo Activity (Guinea Pig) % Inhibition", "setting": "[4]; 60 min", "result": -55, "unit": "%"},
      {"measurement": "In vivo Activity (Guinea Pig) % Inhibition", "setting": "[4]; 120 min", "result": -80, "unit": "%"}
    ]},
    {"compound": "O=S(=O)(O)OC[C@H]1O[C@@H](OC[C@H]2O[C@H](OC[C@H]3OC(OS(=O)(=O)O)[C@H](OS(=O)(=O)O)[C@@H](OS(=O)(=O)O)[C@@H]3OS(=O)(=O)O)[C@H](OS(=O)(=O)O)[C@@H](OS(=O)(=O)O)[C@H]2OS(=O)(=O)O)[C@H](OS(=O)(=O)O)[C@@H](OS(=O)(=O)O)[C@@H]1O[C@H]1O[C@H](COS(=O)(=O)O)[C@@H](O[C@H]2O[C@H](COS(=O)(=O)O)[C@@H](O[C@H]3O[C@H](COS(=O)(=O)O)[C@@H](O[C@H]4O[C@H](COS(=O)(=O)O)[C@@H](O[C@H]5O[C@H](COS(=O)(=O)O)[C@@H](O[C@H]6O[C@H](COS(=O)(=O)O)[C@@H](OS(=O)(=O)O)[C@H](OS(=O)(=O)O)[C@H]6OS(=O)(=O)O)[C@H](OS(=O)(=O)O)[C@H]5OS(=O)(=O)O)[C@H](OS(=O)(=O)O)[C@H]4OS(=O)(=O)O)[C@H](OS(=O)(=O)O)[C@H]3OS(=O)(=O)O)[C@H](OS(=O)(=O)O)[C@H]2OS(=O)(=O)O)[C@H](OS(=O)(=O)O)[C@H]1OS(=O)(=O)O", "note": "(stereo partly drawn) [drawing 17, O-α-D-glucopyranosyl(1→4)-O-α-D-glucopyranosyl(1→4)-O-α-D-glucopyranosyl(1→4)-O-α-D-glucopyranosyl(1→4)-O-α-D-glucopyranosyl(1→4)-O-α-D-glucopyranosyl(1→4)-O-β-D-glucopyranosyl(1→6)-O-α-D-galactopyranosyl(1→6)-D-glucopyranose [(glc 1α,4)6 glc 1β,6 gal 1α,6 glc] nonacosakis (H-sulfate), non-acosasodium salt]", "values": [
      {"measurement": "C1 026 Wells", "setting": "[1]", "result": "+9 Wells"},
      {"measurement": "C-Late 035 Wells", "setting": "[2]", "result": "+3 Wells"},
      {"measurement": "Shunt Inhibition 036 Wells", "setting": "[3]", "result": "+5 Wells"}
    ]},
    {"compound": "NC[C@H]1CC[C@H](C(=O)O)CC1", "note": "[tranexamic acid]", "values": [
      {"measurement": "treatment of hereditary angio-neurotic edema", "setting": "[6]", "result": "used with success"}
    ]},
    {"compound": "Nc1ccc2cc(S(=O)(=O)[O-])cc(O)c2c1N=Nc1ccc(NC(=O)Nc2ccc(N=Nc3c(N)ccc4cc(S(=O)(=O)[O-])cc(O)c34)c(S(=O)(=O)[O-])c2)cc1S(=O)(=O)[O-].[Na+].[Na+].[Na+].[Na+]", "note": "[chlorazol fast pink, 3,3'-ureylenebis[6-(2-amino-8-hydroxy-6-sulfo-1-naphthylazo)benzenesulfonic acid], tetrasodium salt]", "values": [
      {"measurement": "anticomplementary effect", "setting": "[7]", "result": "anticomplementary effect"}
    ]}
  ]
}
